# From US20220009914A1, “Analogs of Nitrofuran Antibiotics to Combat Resistance” (The Trustees of Indiana University, priority 2020, published 2022)
# Key:
# [1] = tested on: nifuroxazide resistant E. coli; type: cell-based, Escherichia coli
# FHC colon cells = test: in vitro; settings: for CC50: human, 48 h
# Description: (§1) Evaluating compound effects on the viability of human colon and small intestine cells. […] Evaluating compound effects on the viability of human colon and small intestine cells. Evaluation of compound cytotoxicities to FHC colon and FHs 74 Int small intestine cells were performed using Alamar Blue-based viability assays. […] FHs 74 Int cells were maintained in Hybri-care medium (ATCC 46-X) supplemented with 30 ng/mL recombinant epidermal growth factor (EGF) and 10% FBS (Midwest Scientific, USDAFBS).
# [2] = tested on: Enterococcus faecium strain NCTC 7171 (ATCC #19434); test: bacterial proliferation assay, E. faecium; type: cell-based; settings: read-out: Bacterial Proliferation EC50 E. faecium
# Description: (§2) All compounds were evaluated for inhibiting the proliferation of E. coli and each of the ESKAPE bacteria. Results presented represent the averages of EC50 values obtained from at least four replicates. Evaluating compounds for inhibition of bacterial cell proliferation.
# (§3) Growth Media: E. coli were grown with LB medium and all ESKAPE bacteria were grown in Brain Heart Infusion (BHI) medium (Becton, Dickinson and Company), with all liquid cultures supplemented with 25 mg/L Ca^2+ and 12.5 mg/L Mg^2+ to mimic physiological free concentrations of these cations. A 10 mg/mL Ca^2+ stock solution was prepared by dissolving 1.84 g of CaCl2.2H2O in 50 mL of deionized water, and a 10 mg/mL Mg^2+ stock solution was prepared by dissolving 4.18 g of MgCl2.6H2O in 50 mL deionized water—filter sterilized using 0.2 μm cellulose-acetate filters. 2.5 mL of the sterile 10 mg/mL Ca^2+ stock and 1.25 mL of the sterile 10 mg/mL Mg^2+ stock solutions were added per 1 L of autoclaved LB or BHI media to obtain 25 mg/L Ca^2+ and 12.5 mg/L Mg^2+ ions, respectively.
# General Assay Protocol: Stock bacterial cultures were streaked onto LB or BHI agar plates and grown overnight at 37° C. Fresh aliquots of cation supplemented media were inoculated with single bacterial colonies and the cultures were grown overnight at 37° C. with shaking (240 rpm). The following morning, cultures were diluted 10-fold into fresh media and grown at 37° C. until bacteria had reached mid-log phase growth (OD600˜0.4-0.6). The cultures were then diluted into fresh media to achieve final OD600 readings of 0.017. Aliquots of these diluted cultures (30 μL) were added to clear, flat-bottom 384-well polystyrene plates that were previously stamped with 0.5 μL of test compounds in 20 μL of media (yielding initial OD600=0.01 bacterial cultures). All compounds were tested in dose-response with concentration ranges during the proliferation assays from 100 μM to 46 nM (3-fold dilution series). A second set of baseline control plates were prepared analogously, but without any bacteria added, to correct for possible compound absorbance and/or precipitation. […] Plates were then read at 600 nm using a Molecular Devices SpectraMax Plus384 microplate reader. […] Results presented represent the averages of EC50 values obtained from at least four replicates.
# Evaluating analogs for inhibiting the growth of E. coli and the ESKAPE bacteria. Analogs were initially tested for antibacterial efficacy against representative strains of antibiotic-sensitive E. coli and the ESKAPE bacteria. To determine compound efficacy, bacterial proliferation assays were carried out in liquid media culture supplemented with physiological concentrations of free calcium and magnesium cations. For these assays, bacterial cultures (OD600=0.01) were exposed to test compounds in 8-point, 3-fold dilution series (100 μM to 46 nM concentration range), in 384-well plates. After addition of compounds to cultures, the plates were sealed with Breathe-Easy gas permeable membranes and allowed to grow to mid-log phase (OD600˜0.4-0.6), whereupon final OD600 readings were taken to assess for bacterial growth and inhibition.
# NEB 5-alpha E. coli = test: microbe, parasite or virus in culture; type: cell-based, Escherichia coli; settings: for resistance of the maximally-resistant strain to its inhibitor after passaging without compound: 4×12 h serial passages without test compounds, then 24 h proliferation assay; for EC50: Escherichia coli, read-out: EC50 plateau after intermediate resistance
# Description: Evaluating the ability of E. coli to generate resistance to lead inhibitors. […] NEB 5-alpha E. coli bacteria were streaked onto an LB agar plate and grown overnight at 37° C. […] The overnight cultures were then sub-cultured (10× dilution) into fresh media solutions and grown at 37° C. to mid-log phase, then diluted into fresh media to achieve two separate cultures with final OD600 readings of 0.01. […] Test compounds were evaluated in duplicate with concentration ranges during the resistance assay from 100 μM to 48.8 nM, 2-fold dilution series. […] OD600 readings were taken at the 24 h time point to monitor for bacterial growth. A second baseline control plate was prepared analogously, without any bacteria added, to correct for possible compound absorbance and/or precipitation. For inoculations on subsequent days, bacteria from the wells with the highest test compound concentration where the OD600 was >0.2, were sub-cultured in 5 mL of fresh media at 37° C. until mid-log phase growth was reached. Separate cultures were maintained from this point forward for each of the compound replicates—i.e. 6 cultures continually propagated. The bacteria were then diluted into fresh media to OD600 of 0.01 and the bacteria were propagated again as described above.
# [3] = tested on: nitrofurantoin resistant E. coli; type: cell-based, Escherichia coli
# [4] = tested on: FHs 74 Int small intestine cells; test: in vitro; settings: for CC50: human, 48 h
# Description: as §1
# [5] = tested on: compound 17 resistant E. coli
# [6] = tested on: E. coli and the ESKAPE bacteria; test: bacterial proliferation assays, whole panel (results in words); type: cell-based
# Description: as §2, §3
# General Assay Protocol: Stock bacterial cultures were streaked onto LB or BHI agar plates and grown overnight at 37° C. Fresh aliquots of cation supplemented media were inoculated with single bacterial colonies and the cultures were grown overnight at 37° C. with shaking (240 rpm). […] The cultures were then diluted into fresh media to achieve final OD600 readings of 0.017. […] A second set of baseline control plates were prepared analogously, but without any bacteria added, to correct for possible compound absorbance and/or precipitation. […] Plates were then read at 600 nm using a Molecular Devices SpectraMax Plus384 microplate reader. […]
# Evaluating analogs for inhibiting the growth of E. coli and the ESKAPE bacteria. […] After addition of compounds to cultures, the plates were sealed with Breathe-Easy gas permeable membranes and allowed to grow to mid-log phase (OD600˜0.4-0.6), whereupon final OD600 readings were taken to assess for bacterial growth and inhibition.
# [7] = tested on: Klebsiella pneumoniae strain NCTC 9633 (ATCC #13883); settings: previously found; read-out: EC50 proliferation of K. pneumoniae; cited from earlier work
# B. subtilis = settings: previously found; read-out: EC50 proliferation of B. subtilis; cited from earlier work
# SM101 E. coli = settings: previously found; read-out: EC50 proliferation of SM101 E. coli; cited from earlier work
# [8] = tested on: Acinetobacter baumannii strain 2208 (ATCC 19606); settings: previously found; read-out: EC50 proliferation of A. baumannii; cited from earlier work
# in vitro [9] = settings: human
# Description: as §1
# in vitro [10] = settings: human; remark: listed apart in the source
# Description: as §1
# [11] = CC50 colon cells over EC50 E. coli proliferation
# [12] = CC50 intestine cells over EC50 E. coli proliferation
# [13] = E. coli and the ESKAPE pathogens
Compound,SI (CC50/EC50) Colon (FHC colon cells),CC50 (FHC colon cells),EC50 [2],SI (CC50/EC50) Intestine [4],cytotoxicity to human cells in words [4],CC50 [4],other results
"O=C(N/N=C/c1ccc([N+](=O)[O-])o1)c1ccc(Cl)s1 [Compound 17, 5-chloro-N′-((5-nitrofuran-2-yl)methylene)thiophene-2-carbohydrazide]",119,53 µM,12 µM,190,low to no cytotoxicity,85 µM,response of nifuroxazide-resistant strains to the other inhibitor [1]: cross-resistant; resistance of the maximally-resistant strain to its inhibitor after passaging without compound (NEB 5-alpha E. coli): still resistant; EC50 (NEB 5-alpha E. coli): 20 to 40 µM; response of nitrofurantoin-resistant strains to the other inhibitor [3]: still sensitive
"O=C(N/N=C/c1ccc([N+](=O)[O-])o1)c1cccs1 [Compound 16, N′-((5-nitrofuran-2-yl)methylene)thiophene-2-carbohydrazide]",198,83 µM,24 µM,168,low to no cytotoxicity,71 µM,–
"O=C(N/N=C/c1ccc([N+](=O)[O-])o1)c1ccccc1 [Compound 18, N′-((5-nitrofuran-2-yl)methylene)benzohydrazide]",>48,> 100 µM,31 µM,45,–,94 µM,–
"O=C(N/N=C/c1ccc([N+](=O)[O-])o1)c1ccncc1 [Compound 19, N′-((5-nitrofuran-2-yl)methylene)isonicotinohydrazide]",26,61 µM,13 µM,38,–,90 µM,–
"O=C1CN(/N=C/c2ccc([N+](=O)[O-])o2)C(=O)N1 [Nitrofurantoin, reference compound]",–,> 100 µM,38 µM,–,low to no cytotoxicity,> 100 µM,"response of nifuroxazide-resistant strains to the other inhibitor [1]: cross-resistant; SI (CC50/EC50) Colon (FHC colon cells; [11]): >146; 17-resistant strains susceptible to the other inhibitor [5]: not; resistance of the maximally-resistant strain to its inhibitor after passaging without compound (NEB 5-alpha E. coli): still resistant; EC50 (NEB 5-alpha E. coli): 20 to 40 µM; SI (CC50/EC50) Intestine [4, 12]: >146"
"O=C(N/N=C/c1ccc([N+](=O)[O-])o1)c1ccc(O)cc1 [Nifuroxazide, reference compound]",–,61 µM,8.1 µM,–,low to no cytotoxicity,79 µM,"SI (CC50/EC50) Colon (FHC colon cells; [11]): 70; 17-resistant strains susceptible to the other inhibitor [5]: susceptible; resistance of the maximally-resistant strain to its inhibitor after passaging without compound (NEB 5-alpha E. coli): still resistant; EC50 (NEB 5-alpha E. coli): 20 to 40 µM; response of nitrofurantoin-resistant strains to the other inhibitor [3]: still sensitive; SI (CC50/EC50) Intestine [4, 12]: 91"
"O=Cc1ccc(O)c2ncccc12 [Compound 40, reference compound]",–,–,7.3 µM,–,–,–,"antibacterial efficacy in words [6, 13]: potent inhibitors of nearly all the bacteria (excluding P. aeruginosa)"
"COc1ccc(C(=O)N/N=C/c2ccc(O)c3ncccc23)cc1 [Compound 1, N′-((8-hydroxyquinolin-5-yl)methylene)-4-methoxybenzohydrazide]",–,–,> 100 µM,–,–,–,EC50 [7]: 95 µM; EC50 (B. subtilis): 83 µM; EC50 (SM101 E. coli): 19 µM; EC50 [8]: 32 µM
"CN(C)c1ccc(C(=O)N/N=C/c2ccc([N+](=O)[O-])o2)cc1 [Compound 21, 4-(dimethylamino)-N′-((5-nitrofuran-2-yl)methylene)benzohydrazide]",>10,> 100 µM,> 100 µM,9.3,–,93 µM,antibacterial efficacy in words ([6]; Gram-positive E. faecium and S. aureus): less effective (or inactive)
"O=Cc1ccc([N+](=O)[O-])o1 [Compound 41, reference compound]",–,–,20 µM,–,–,–,"antibacterial efficacy in words [6, 13]: potent inhibitors of nearly all the bacteria (excluding P. aeruginosa)"
"COc1ccc(C(=O)N/N=C/c2ccc([N+](=O)[O-])o2)cc1 [Compound 20, 4-methoxy-N′-((5-nitrofuran-2-yl)methylene)benzohydrazide]",>53,> 100 µM,22 µM,40,low to no cytotoxicity,75 µM,–
"O=C1CN(/N=C/c2ccc(O)c3ncccc23)C(=O)N1 [Compound 2, 1-(((8-hydroxyquinolin-5-yl)methylene)amino)imidazolidine-2,4-dione]",–,–,> 100 µM,–,–,–,CC50 at 48 h (in vitro [9]): > 100 µM; CC50 at 48 h (in vitro [10]): > 100 µM
